The values that follow come from US20150335558A1, “NERVE GROWTH INHIBITOR, CUTANEOUS-SENSORY-IRRITATION INHIBITOR, AND MARKER FOR CUTANEOUS-SENSORY-IRRITATION DETECTION” (HOYU CO., LTD., priority 2012, published 2015).

The structures appear in SMILES notation.

For this experiment, the system named is ICR mice. The experiment is described as follows: Scratch bouts of ICR mice after 10% SDS application (Sample Experiment 1-1). In kind it is in vivo, mouse. To be noted: ICR mice, 10% SDS aqueous solution 50 μL single application to rostral back, Day 0 to Day 4, vs untreated and solvent control. On the procedure: The present Sample Experiment was conducted using ICR mice, and an anionic surfactant, namely, sodium dodecyl sulfate (SDS), was used as a stimulating substance to analyze the scratch bouts of mice. After SDS had been applied, terfenadine (TRF) was administered as an antihistamine to determine its effect on scratch bouts.
Male ICR mice at ages of 7 to 8 weeks, purchased from Japan SLC, were used. The mice were given solid feed under free water supply and subjected to preliminary rearing for 7 days or longer under a constant temperature/constant humidity environment with a temperature of 22±2° C., and a humidity of 55±10% before they were used in the test. The mice for use were used in the test at least 3 days after shearing/depilating the rostral back of each mouse. […]
The scratch bouts of mice were performed in view of the Kuraishi et al. report. That is, a single mouse was put in each chamber of the 4 divided sections in an acrylic box (13×9×35 cm) to be acclimated for at least an hour, and they were video recorded in an environment without any person for at least an hour a day from the day of applying the above 10% SDS aqueous solution (Day 0) to the 4th day after application (Day 4) to record their movement. Then, by watching the video, the number of scratch bouts against the rostral back by the hind leg was counted. […]

On to `CCCCCCCCCCCCOS(=O)(=O)[O-].[Na+]` [SDS, sodium dodecyl sulfate], for which the “scratch bouts of mice (number in 60 mins.) after stimulating substance” value is “increased significantly over time”.
